The text below walks through data of patent publication US8999957B2, “Heterocyclic compounds as ERK inhibitors” (Merck Sharp & Dohme Corp., priority 2010, dated 2015).

Several values for one entry are separate records, joined by “and”; a condition that tells them apart may be missing. Equal values may be shown once.

The first assay deals with fully phosphorylated, mouse aERK2 enzyme (Mus musculus (Mouse), UniProt P63085). As to the kind of experiment: Active ERK2 (aERK) IMAP-FP assay, condition 2. Format: biochemical. The conditions noted are these: aERK assay condition 2, 30 uM ATP; read-out: aERK IC50. The protocol: Active ERK2 (aERK) Assay: (Unless Indicated Otherwise, the Data Provided for aERK was obtained using Condition 1)
fully phosphorylated, mouse aERK2 enzyme, sequence (P63085 whole entry): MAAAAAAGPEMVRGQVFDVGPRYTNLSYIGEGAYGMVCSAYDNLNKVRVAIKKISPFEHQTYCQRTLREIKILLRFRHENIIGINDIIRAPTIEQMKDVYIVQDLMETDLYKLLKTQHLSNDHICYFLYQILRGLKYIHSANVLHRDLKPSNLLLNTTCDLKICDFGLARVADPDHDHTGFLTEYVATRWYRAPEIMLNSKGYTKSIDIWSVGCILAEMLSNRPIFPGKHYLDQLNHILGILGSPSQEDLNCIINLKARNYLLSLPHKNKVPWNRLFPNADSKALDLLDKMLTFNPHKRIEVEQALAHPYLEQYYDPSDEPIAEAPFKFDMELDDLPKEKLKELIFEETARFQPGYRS
Activated ERK2 activity was determined in an IMAP-FP assay (Molecular Devices). […] Phosphorylation reactions were allowed to proceed for 40-45 minutes and were immediately quenched by the addition of 60 μL IMAP detection beads (1:1000 dilutions) in IMAP binding buffer. Plates were read on EnVision reader after 30 minutes binding equilibration.
With `COc1ccc(N(C)C(=O)[C@@H]2CC[C@@H](NC(=O)c3ccc4[nH]nc(-c5ccnc(C)c5)c4c3)CN2Cc2c(F)cccc2OC)cc1` [N-{(3R,6S)-1-(2-fluoro-6-methoxybenzyl)-6-[(4-methoxyphenyl)(methyl)carbamoyl]piperidin-3-yl}-3-(2-methylpyridin-4-yl)-1H-indazole-5-carboxamide], the IC50 worked out at 5.8 nM. As for `CN(C)C(=O)C(c1c(F)cccc1F)N1CCC[C@@H](NC(=O)c2ccc3[nH]nc(-c4ccncc4)c3c2)C1` (single isomer, unassigned) [drawing 508, N-((R)-1-((S or R)-1-(2,6-difluorophenyl)-2-(dimethyl-amino)-2-oxoethyl)piperidin-3-yl)-3-(pyridin-4-yl)-1H-indazole-5-carboxamide], the IC50 was 115 nM.

Turning to `COc1cccc(F)c1CN1C[C@H](NC(=O)c2ccc3[nH]nc(-c4ccnc(C)c4)c3c2)CC[C@H]1C(=O)NCC1(CO)CCCC1` [N-[(3R,6S)-1-(2-fluoro-6-methoxybenzyl)-6-({[1-(hydroxymethyl)cyclopentyl]methyl}carbamoyl)piperidin-3-yl]-3-(2-methylpyridin-4-yl)-1H-indazole-5-carboxamide], the IC50 was 8.8 nM. In the case of `COc1cccc(F)c1CN1C[C@H](NC(=O)c2ccc3[nH]nc(-c4ccnc(C)c4)c3c2)CC[C@H]1C(=O)NC1CC1` [N-[(3R,6S)-6-(cyclopropylcarbamoyl)-1-(2-fluoro-6-methoxybenzyl)piperidin-3-yl]-3-(2-methylpyridin-4-yl)-1H-indazole-5-carboxamide], the 50% inhibitory concentration (IC50) came to 3.4 nM. As to `COc1cccc(F)c1CN1C[C@H](NC(=O)c2ccc3[nH]nc(-c4ccnc(C)c4)c3c2)CC[C@H]1C(=O)Nc1cccnc1` [N-[(3R,6S)-1-(2-fluoro-6-methoxybenzyl)-6-(pyridin-3-ylcarbamoyl)piperidin-3-yl]-3-(2-methylpyridin-4-yl)-1H-indazole-5-carboxamide], the IC50 came to 4.1 nM.

The same assay, now with this note: active ERK2; read-out: aErk2 Ic50.
On to `Cc1cc(-c2n[nH]c3ccc(C(=O)N[C@@H]4CC[C@@H](C(=O)N(C)C)N(Cc5ccccc5F)C4)cc23)ccn1` [N-[(3R,6S)-6-(dimethylcarbamoyl)-1-(2-fluorobenzyl)piperidin-3-yl]-3-(2-methylpyridin-4-yl)-1H-indazole-5-carboxamide], for which the half-maximal inhibitory concentration (IC50) was 39.4 nM. As to `COc1cccc(F)c1CN1C[C@H](NC(=O)c2ccc3[nH]nc(-c4ccncc4)c3c2)CC[C@H]1C(=O)N1CCCC1` [N-[(3R,6S)-1-(2-fluoro-6-methoxybenzyl)-6-(pyrrolidin-1-ylcarbonyl)piperidin-3-yl]-3-pyridin-4-yl-1H-indazole-5-carboxamide], the IC50 came to 35.5 nM. For `CCN(CC)C(=O)[C@@H]1CC[C@@H](NC(=O)c2ccc3[nH]nc(-c4ccnnc4)c3c2)CN1Cc1c(F)cccc1OC` [N-[(3R,6S)-6-(diethylcarbamoyl)-1-(2-fluoro-6-methoxybenzyl)piperidin-3-yl]-3-pyridazin-4-yl-1H-indazole-5-carboxamide], the half-inhibitory concentration (IC50) worked out at 137 nM. The same measure, in the same setting: in the case of `COc1cccc(F)c1CN1C[C@H](NC(=O)c2ccc3[nH]nc(-c4ccc5nc(C)sc5c4)c3c2)CC[C@H]1C(=O)N(C)C` [N-[(3R,6S)-6-(dimethylcarbamoyl)-1-(2-fluoro-6-methoxybenzyl)piperidin-3-yl]-3-(2-methyl-1,3-benzothiazol-6-yl)-1H-indazole-5-carboxamide] it was 48 nM; in that of `COc1cccc(F)c1CN1C[C@H](NC(=O)c2ccc3[nH]nc(-c4ccnc(C)c4)c3c2)CC[C@H]1C(N)=O` [N-[(3R,6S)-6-carbamoyl-1-(2-fluoro-6-methoxybenzyl)piperidin-3-yl]-3-(2-methylpyridin-4-yl)-1H-indazole-5-carboxamide], 1 nM. As to `Cc1cc(-c2n[nH]c3ccc(C(=O)N[C@@H]4CC[C@@H](C(=O)N5CC(F)(F)C5)N(Cc5c(F)cccc5F)C4)cc23)ccn1` [N-[(3R,6S)-6-[(3,3-difluoroazetidin-1-yl)carbonyl]-1-(2,6-difluorobenzyl)piperidin-3-yl]-3-(2-methylpyridin-4-yl)-1H-indazole-5-carboxamide], the IC50 was 96.5 nM. In the case of `[2H]C([2H])([2H])Oc1cccc(F)c1CN1C[C@H](NC(=O)c2ccc3[nH]nc(-c4ccc5nc(C)sc5c4)c3c2)CC[C@H]1C(=O)N1CCN(C(C)=O)CC1`, the IC50 was 63.1 nM. For `COc1cccc(F)c1CN1C[C@H](NC(=O)c2ccc3[nH]nc(-c4ccnc(C)c4)c3c2)CC[C@H]1C(=O)NOC(C)(C)C` [N-[(3R,6S)-6-(tert-butoxycarbamoyl)-1-(2-fluoro-6-methoxybenzyl)piperidin-3-yl]-3-(2-methylpyridin-4-yl)-1H-indazole-5-carboxamide], the 50% inhibitory concentration (IC50) was 26.2 nM. In the case of `COc1cccc(F)c1CN1C[C@H](NC(=O)c2ccc3[nH]nc(-c4ccc5nn(C)cc5c4)c3c2)CC[C@H]1C(=O)N(C)C`, the IC50 was 15.9 nM. Regarding `Cc1cc(-c2n[nH]c3ccc(C(=O)N[C@@H]4CC[C@@H](C(=O)N5CC(F)(F)C5)N(CCc5ccccc5)C4)cc23)ccn1` [N-[(3R,6S)-6-[(3,3-difluoroazetidin-1-yl)carbonyl]-1-(2-phenylethyl)piperidin-3-yl]-3-(2-methylpyridin-4-yl)-1H-indazole-5-carboxamide], the half-maximal inhibitory concentration (IC50) amounted to 232 nM. On the same count and under the same terms, in the case of `COc1cccc(F)c1CN1C[C@H](NC(=O)c2ccc3[nH]nc(-c4ccnc(C)c4)c3c2)CC[C@H]1C(=O)NCCCNC(=O)OC(C)(C)C` [tert-butyl [3-({[(2S,5R)-1-(2-fluoro-6-methoxybenzyl)-5-({[3-(2-methylpyridin-4-yl)-1H-indazol-5-yl]carbonyl}amino)piperidin-2-yl]carbonyl}amino)propyl]carbamate] it was 16.9 nM; in that of `CCN(CC)C(=O)[C@@H]1CC[C@@H](NC(=O)c2ccc3[nH]nc(-c4ccnc(C)c4)c3c2)CN1CCc1ccccc1` [N-[(3R,6S)-6-(diethylcarbamoyl)-1-(2-phenylethyl)piperidin-3-yl]-3-(2-methylpyridin-4-yl)-1H-indazole-5-carboxamide], 158 nM. `COc1cccc(F)c1CN1C[C@H](NC(=O)c2ccc3[nH]nc(-c4ccnc(C)c4)c3c2)CC[C@H]1C(=O)N1CCN(C(=O)OC2(C)CC2)CC1` [1-methylcyclopropyl 4-{[(2S,5R)-1-(2-fluoro-6-methoxybenzyl)-5-({[3-(2-methylpyridin-4-yl)-1H-indazol-5-yl]carbonyl}amino)piperidin-2-yl]carbonyl}piperazine-1-carboxylate]: the half-inhibitory concentration (IC50) was found to be 22.1 nM. Still for that read-out and setting: in the case of `CCCN(C)C(=O)[C@@H]1CC[C@@H](NC(=O)c2ccc3[nH]nc(-c4ccnc(C)c4)c3c2)CN1Cc1c(F)cccc1OC` [N-{(3R,6S)-1-(2-fluoro-6-methoxybenzyl)-6-[methyl(propyl)carbamoyl]piperidin-3-yl}-3-(2-methylpyridin-4-yl)-1H-indazole-5-carboxamide] it was 57 nM. Consider “N-{(3R,6S)-1-(2-fluoro-6-methoxybenzyl)-6- [(2-methylhydrazino)carbonyl]piperidin-3- yl}-3-(2-methylpyridin-4-yl)-1H-indazole-5- carboxamide”, for which the IC50 is 20.2 nM and 30 nM. For `COc1cccc(F)c1CN1C[C@H](NC(=O)c2ccc3[nH]nc(-c4ccnc(C)c4)c3c2)CC[C@H]1C(=O)N1CCN(C)CC1` [N-{(3R,6S)-1-(2-fluoro-6-methoxybenzyl)-6-[(4-methylpiperazin-1-yl)carbonyl]piperidin-3-yl}-3-(2-methylpyridin-4-yl)-1H-indazole-5-carboxamide], the IC50 came to 32.5 nM. As to `CNC(=S)NNC(=O)[C@@H]1CC[C@@H](NC(=O)c2ccc3[nH]nc(-c4ccnc(C)c4)c3c2)CN1Cc1c(F)cccc1OC` [N-[(3R,6S)-1-(2-fluoro-6-methoxybenzyl)-6-{[2-(methylcarbamothioyl)hydrazino]-carbonyl}piperidin-3-yl]-3-(2-methylpyridin-4-yl)-1H-indazole-5-carboxamide], the half-inhibitory concentration (IC50) stood at 1 nM. Same read-out and setting: then `COc1cccc(F)c1CN1C[C@H](NC(=O)c2ccc3[nH]nc(-c4ccnc(C)c4)c3c2)CC[C@H]1C(=O)NC(C)C` [N-{(3R,6S)-1-(2-fluoro-6-methoxybenzyl)-6-[(1-methylethyl)carbamoyl]piperidin-3-yl}-3-(2-methylpyridin-4-yl)-1H-indazole-5-carboxamide], with 46.5 nM; and `CCCN(CCC)C(=O)[C@@H]1CC[C@@H](NC(=O)c2ccc3[nH]nc(-c4ccnc(C)c4)c3c2)CN1Cc1c(F)cccc1OC` [N-[(3R,6S)-6-(dipropylcarbamoyl)-1-(2-fluoro-6-methoxybenzyl)piperidin-3-yl]-3-(2-methylpyridin-4-yl)-1H-indazole-5-carboxamide], with 141 nM; and `[2H]C([2H])([2H])Oc1cccc(F)c1CN1C[C@H](NC(=O)c2ccc3[nH]nc(-c4ccc5nc(C)sc5c4)c3c2)CC[C@H]1C(=O)N1CCN(C(=O)OC(C)(C)C)CC1`, with 72.8 nM. Take `COc1cccc(F)c1CN1C[C@H](NC(=O)c2ccc3[nH]nc(-c4ccnc(C)c4)c3c2)CC[C@H]1C(=O)N(C)CCCCNC(=O)OC(C)(C)C` [tert-butyl {4-[{[(2S,5R)-1-(2-fluoro-6-methoxybenzyl)-5-({[3-(2-methylpyridin-4-yl)-1H-indazol-5-yl]carbonyl}amino)piperidin-2-yl]carbonyl}(methyl)amino]butyl}carbamate]: the IC50 is 90.3 nM. As to `COc1cccc(F)c1CN1C[C@H](NC(=O)c2ccc3[nH]nc(-c4ccnc(C)c4)c3c2)CC[C@H]1C(=O)NCCF` [N-[(3R,6S)-6-[(2-fluoroethyl)carbamoyl]-1-(2-fluoro-6-methoxybenzyl)piperidin-3-yl]-3-(2-methylpyridin-4-yl)-1H-indazole-5-carboxamide], the IC50 worked out at 9 nM.

Turning to `CCN(CC)C(=O)[C@@H]1CC[C@@H](NC(=O)c2ccc3[nH]nc(-c4ccnc(C)c4)c3c2)CN1Cc1c(F)cccc1F` [N-[(3R,6S)-6-(diethylcarbamoyl)-1-(2,6-difluorobenzyl)piperidin-3-yl]-3-(2-methylpyridin-4-yl)-1H-indazole-5-carboxamide], the IC50 was determined as 80.7 nM.

In general, IC50 refers to the point on the concentration scale where inhibition reaches its midpoint.
